{"source": "patent US4323550A", "about": "“Halogenohydrates of N,N-disubstituted derivatives of piperazine having anticariogenic properties” (priority 1976, dated 1982)", "key": {"[1]": {"assay": "Solubility", "format": "physicochemical"}, "[2]": {"test_system": "rats", "assay": "in vivo", "format": "in vivo", "conditions": "rat, oral; for Deaths: D + 10, 8 per lot", "method": "(§1) By way of example there are described below the comparative tests made on difluorohydrate of N,N'-di(hydroxyethyl) piperazine and on fluorohydrate of hexadecylamine or \"ELMEX 242\".\n(§2) The acute toxidity was studies in rats and in mice.\n(§3) The animals came from a homogeneous breed. The mice weighed between 19 and 21 g and the rats weighed from 120 to 140 g. The mice were grouped in lots of 10 and the rats in lots of 8.\n(§4) The administrations took place orally at a volume of 0.5 ml per 20 g of mouse and 1 ml per 100 g of rat. The LD50 was determined by the method of Lichfield and Wilcoxon.\n(§5) As regards the difluorohydrate of N,N'-di(hydroxyethyl) piperazine, the administered solution was prepared by diluting the mother solution to 65.4%, the dilutions being made after having weighed this solution. The administered dose is expressed by weight, taking account of the indicated strength of this solution.\n(§6) For the solid \"ELMEX 242\" an aqueous suspension was prepared with the aid of solubilizing agents (e.g. Tween-polyoxyethylene sorbitan monolaurate). A very thick suspension is then obtained which tends to foam heavily, is difficult to get into the esophageal sound, and the determination of its volume is rendered difficult by the foam.\n(§7) The results obtained with the \"ELMEX\" are therefore rather approximate."}, "[3]": {"test_system": "mice", "assay": "Acute oral toxicity in mice", "format": "in vivo", "conditions": "mouse", "method": "as §1, §2, §3, §4, §5, §6, §7"}, "[4]": {"assay": "Acute oral toxicity in mice", "format": "in vivo", "conditions": "in vivo, mouse, Lichfield and Wilcoxon", "method": "as §1, §2, §3, §4, §5, §6, §7"}, "[5]": {"assay": "Penetration of fluorine 18 into dental enamel after topical application (Muhlemann biopsy)", "set-up": "species or system children", "excerpt": "The anticariogenic activity of the difluorohydrate of N,N'-di(hydroxy-ethyl) piperazine has been evidenced by comparison with sodium fluoride known for its cariopreventive topical properties. A comparative study has been made of the penetration into the dental enamel of the fluorine contained in the molecule according to the invention and of the fluorine contained in sodium fluoride.\nFor this comparison the difluorohydrate of N,N'-di(hydroxy-ethyl) piperazine was marked at the fluorine 18, by isotopic exchange by dissolving some crystals of the product according to the invention in a solution of pure fluorine 18 without entrainer. The same was done for the sodium fluoride.\nThe study of the penetration of the fluorine into the enamel was made on several teeth to compare the behavior of the product of the invention and of sodium fluoride in supplying fluorine and in the penetration of the latter into the deepest layers of the dental tissue.\nThe tests were performed on 30 premolar teeth taken from normal children 9 to 11 years old. Eighteen teeth were treated by topical application of the radioactive solutions of the difluoro-hydrate of N,N'-di(hydroxy-ethyl) piperazine or of NaF adjusted to pH=3.5; the other 12 were treated with the same solutions adjusted to a pH of 7.4.\nThe radioactive solutions are obtained by dissolving 69 mg of the difluorohydrate and 81.3 mg of NaF, respectively, in 1 and 3 ml of fluorine 18 solution without entrainer. Thus solutions titering 1.23% fluorine are obtained.\nAs the difluorohydrate solution is already at pH=3.5, it is sufficient to acidify the NaF solution by addition of about 0.2 ml hydrochloric acid 6 M, to 3 ml of the radioactive solution.\nIn this case, the difluorohydrate's nature of organic salt can be preserved and its solution neutralized at 1.23% of fluorine in 1 ml by addition of about 110 mg of its N,N'-di(hydroxyethyl) piperazine base.\nFor the experimentation one determines two enamel plagues on each tooth. For this, one applies on the crowns, separated from each other by 2 or 3 mm, two round disks of a diameter of 3 mm cut out from adhesive tape. The crown is then covered with a layer of impermeable varnish. When the varnish is dry, the patches of adhesive tape are removed, thus bearing the two zones of enamel to be treated.\nThe spot application of the fluorinated solution is done by means of a sponge imbibed with 0.5 ml of the solution. This sponge is inserted in a polyethylene tube to limit the surface of contact between tooth and sponge to the circumference of the enamel zone treated.\nThe sampling of the enamel is done by Muhlemann's biopsy technique: A patch of blotting paper impregnated with 4 microliters of perchloric acid 2 M is applied on the trated enamel for 30 seconds. The enamel is dried with a second patch of blotting paper. It is on these patches which contain the dissolved enamel that we measure the radioactivity.\nThere are given in Table I all the results relating to the acid treatment, in Table II all the results relating to the treatment at neutral pH. The fluorine values are those obtained by measuring the radioactivity of the samples.\nThe columns […] and N2 represent the mass of fluorine measured on the second biopsy.\nWe have marked R1 and R1 and R2 the ratios G1 /G2 and N1 /N2, and R3 the ratio. [formula] R1 and R2 permitting to compare the quantities of fluorine at the same depth. R3 permits comparing the accumulation of fluorine in the tooth."}}, "data": [{"smiles": "OCCN1CCN(CCO)CC1", "note": "[DI-IODOHYDRATE OF N,N'-DI-(BETA-HYDROXY-ETHYL) PIPERAZINE]", "values": [{"measurement": "solubility in water, in alcohols, glycols", "setting": "[1]", "result": "soluble"}]}, {"smiles": "CCCCCCCCCCCCCCCCN", "note": "[ELMEX 242, fluorohydrate of hexadecylamine]", "values": [{"measurement": "symptoms / behavior", "setting": "[2]", "result": "The behavior of the animals is normal."}, {"measurement": "Deaths", "setting": "[2]; 125 mg/kg", "result": 0}, {"measurement": "Deaths", "setting": "[2]; 150 mg/kg", "result": 0}, {"measurement": "Deaths", "setting": "[2]; 500 mg/kg", "result": 0}, {"measurement": "course: death and recovery", "setting": "[3]", "result": "Death occurs in a few hours; for others recovery is also fairly rapid."}, {"measurement": "symptoms", "setting": "[3]", "result": "The animals have diarrhea. The mice are totally immobile and tremble."}, {"measurement": "Deaths", "setting": "[3]; 600 mg/kg, D + 1, 10 per lot", "result": 0}, {"measurement": "Deaths", "setting": "[3]; 600 mg/kg, D + 2, 10 per lot", "result": 0}, {"measurement": "Deaths", "setting": "[3]; 600 mg/kg, D + 5, 10 per lot", "result": 0}, {"measurement": "Deaths", "setting": "[3]; 600 mg/kg, D + 10, 10 per lot", "result": 0}, {"measurement": "Deaths", "setting": "[3]; 800 mg/kg, D + 1, 10 per lot", "result": 0}, {"measurement": "Deaths", "setting": "[3]; 800 mg/kg, D + 2, 10 per lot", "result": 0}, {"measurement": "Deaths", "setting": "[3]; 800 mg/kg, D + 5, 10 per lot", "result": 0}, {"measurement": "Deaths", "setting": "[3]; 800 mg/kg, D + 10, 10 per lot", "result": 0}, {"measurement": "Deaths", "setting": "[3]; 1000 mg/kg, D + 1, 10 per lot", "result": 1}, {"measurement": "Deaths", "setting": "[3]; 1000 mg/kg, D + 2, 10 per lot", "result": 2}, {"measurement": "Deaths", "setting": "[3]; 1000 mg/kg, D + 5, 10 per lot", "result": 2}, {"measurement": "Deaths", "setting": "[3]; 1000 mg/kg, D + 10, 10 per lot", "result": 2}, {"measurement": "Deaths", "setting": "[3]; 1250 mg/kg, D + 1, 10 per lot", "result": 1}, {"measurement": "Deaths", "setting": "[3]; 1250 mg/kg, D + 2, 10 per lot", "result": 2}, {"measurement": "Deaths", "setting": "[3]; 1250 mg/kg, D + 5, 10 per lot", "result": 3}, {"measurement": "Deaths", "setting": "[3]; 1250 mg/kg, D + 10, 10 per lot", "result": 3}, {"measurement": "Deaths", "setting": "[3]; 1500 mg/kg, D + 1, 10 per lot", "result": 4}, {"measurement": "Deaths", "setting": "[3]; 1500 mg/kg, D + 2, 10 per lot", "result": 7}, {"measurement": "Deaths", "setting": "[3]; 1500 mg/kg, D + 5, 10 per lot", "result": 9}, {"measurement": "Deaths", "setting": "[3]; 1500 mg/kg, D + 10, 10 per lot", "result": 9}, {"measurement": "Deaths", "setting": "[3]; 1750 mg/kg, D + 1, 10 per lot", "result": 3}, {"measurement": "Deaths", "setting": "[3]; 1750 mg/kg, D + 2, 10 per lot", "result": 4}, {"measurement": "Deaths", "setting": "[3]; 1750 mg/kg, D + 5, 10 per lot", "result": 9}, {"measurement": "Deaths", "setting": "[3]; 1750 mg/kg, D + 10, 10 per lot", "result": 9}, {"measurement": "Deaths", "setting": "[3]; 2000 mg/kg, D + 1, 10 per lot", "result": 9}, {"measurement": "Deaths", "setting": "[3]; 2000 mg/kg, D + 2, 10 per lot", "result": 10}, {"measurement": "Deaths", "setting": "[3]; 2000 mg/kg, D + 5, 10 per lot", "result": 10}, {"measurement": "Deaths", "setting": "[3]; 2000 mg/kg, D + 10, 10 per lot", "result": 10}, {"measurement": "Deaths", "setting": "[3]; 2500 mg/kg, D + 1, 10 per lot", "result": 10}, {"measurement": "Deaths", "setting": "[3]; 2500 mg/kg, D + 2, 10 per lot", "result": 10}, {"measurement": "Deaths", "setting": "[3]; 2500 mg/kg, D + 5, 10 per lot", "result": 10}, {"measurement": "Deaths", "setting": "[3]; 2500 mg/kg, D + 10, 10 per lot", "result": 10}, {"measurement": "LD50 at 240 h", "setting": "[4]", "result": 1250, "unit": "mg/kg"}]}, {"smiles": "[F-].[Na+]", "note": "[NaF, sodium fluoride, reference compound]", "values": [{"measurement": "mean value of R2", "setting": "[5]; neutral medium, 12 teeth", "result": 3.6}, {"measurement": "average fluorine sampled in the two biopsies, acid pH compared with neutral pH", "setting": "[5]; pH 3.5 versus pH 7.4", "result": 3.6}]}]}
